Reference: patent US7863325B2, “Crystalline genistein sodium salt dihydrate” (Axcentua Pharmaceuticals AB, priority 2008, dated 2011)
Read-outs that look alike come from different tables or passages of the source.

Key:
[1] = Stability study (80° C., 40° C./75 RH %, light; XRPD and colour); type: physicochemical
Description: Sample stability was tested at 80° C. for 7 days and at 40° C./75 RH % for 7 days. Observations such as color change were noted after 7 days and XRPD of samples were taken after 7 days to investigate any solid form change.

[2] = Hydration study (IPA/water mixtures, XRPD and TGA); type: physicochemical; settings: IPA/water mixtures (3%, 5% and 10%), ca. 48 hours, ambient temperature
Description: Approximately 100 mg of crystalline genistein sodium salt dihydrate were placed in ca. 500 μL IPA/water mixtures (3%, 5% and 10%) at the water level. Each mixture was agitated for ca. 48 hours at ambient temperature and then filtered to recover the solid for XRPD and TGA studies.

[3] = Disproportionation study (slurry in distilled water, XRPD, pH); type: physicochemical; settings: 50 mg slurried in 250 μL distilled water ca. 48 hours
Description: A 50 mg sample of crystalline genistein sodium salt dihydrate was slurried in 250 μL distilled water for ca. 48 hours and then checked by XRPD for disproportionation. The pH of the supernatant was also measured using a Corning 240 pH meter. […] The pH of the supernatant after slurrying was 7.1.

[4] = SuperSol 1000 kinetic and equilibrium solubility assay
[5] = Aqueous solubility (slurry shaken ca. 24 hours, filtered, HPLC); type: physicochemical; settings: aqueous buffer, thermodynamic from solid
Description: Aqueous Solubility: Aqueous solubility was measured using the following protocol. Slurries of genistein and of crystalline genistein sodium dihydrate salt were made up in aqueous media in which pH was set at 4.5, 6.7, and 7.5, each slurry was shaken at ambient temperature for ca. 24 hours and then filtered using a 0.2 μm filter into a clean vial. The saturated solutions were then diluted and analyzed for API (genistein) content using N-Ac-DL-Methionine on a Chirobiotic T HPLC column and UV detector set at λmax=270 nm. The mobile phase was acetonitrile/water run in isocratic mode over a 30 minute period. The results are presented in Table 3, (BDL=below detection limits).

[6] = rat
Description: Preparation of Dosing Solutions for In-Vivo Study: Genistein and Crystalline genistein sodium salt dihydrate were stored at room temperature under desiccant and protected from light. The dosing solutions were prepared fresh from powders on the day of dosing. The dosing solution for intravenous administration (IV) was prepared at 1 mg/mL (free acid) in 50:50 DMSO:saline. The dosing solutions for intraduodenal administration (ID) were prepared at 2 mg/mL (genistein free acid) in a 0.2% sodium carboxymethyl cellulose (Na CMC) solution in water.
Animal Dosing: The pharmacokinetics of genistein was evaluated in fasted male Sprague-Dawley rats. Each animal was fitted with a jugular vein cannula (JVC) for blood sampling. Animals intended for intravenous dosing were fitted with an additional JVC for dose administration. Animals intended for intraduodenal dosing were fitted with an intraduodenal cannula (IDC) for dose administration. Surgically modified animals were housed one per cage. All animals were supplied with a commercial rodent diet (LabDiet, Certified Rodent Diet #5002) ad libitum prior to study initiation. […] Water was supplied ad libitum.
Intraduodenal dosing solutions were administered as a single bolus dose at time zero on the day of dosing. Intravenous doses were administered as a slow IV injection over approximately 1 minute. Blood sampling times began at the end of the infusion. Blood samples were collected.
Each blood sample was collected from the rats via a jugular vein cannula and placed into chilled polypropylene tubes containing sodium heparin as an anticoagulant. Samples were centrifuged at a temperature of 4° C. and at a speed of 13,000 rpm for 5 minutes. Samples were maintained chilled throughout processing. Each plasma sample was split into two aliquots. The first aliquot contained 50 μL of plasma. All remaining plasma volume was used for the second aliquot. Samples were then placed on dry ice, and stored in a freezer set to maintain −60° C. to −80° C. The total concentration of genistein in plasma samples were analyzed by LC-MS/MS after an overnight incubation with glucuronidase/arylsulfatase enzyme mixture. Pharmacokinetic parameters were calculated using the WinNonlin software.
Analysis of Plasma Samples: An LC-MS/MS analytical method for the determination of genistein in rat plasma was developed. Prior to sample analysis, a standard curve was analyzed to determine the specificity, range, and linearity of the method. Total genistein in plasma samples was determined by pre-treating all samples with β-glucuronidase/arylsulfatase enzymes and incubating prior to analysis. Incubation with the enzyme mix deconjugated any glucuronide or sulfate metabolites of genistein back to the parent form.
Acceptance Criteria for LC-MS/MS Analysis: One standard curve was dispersed throughout each analytical run. At least ⅝ of the standards must be accurate to within ±20%, except at the LLOQ where ±25% is acceptable, in order for the run to pass.
Pharmacokinetic Analysis: Individual plasma concentrations versus time data for genistein were subjected to non-compartmental analysis using the pharmacokinetic program WinNonlin v. […] Plasma concentrations below the limit of quantitation (10 ng/mL) were assigned a value of zero for PK analysis only.

[7] = Solubility in different solvents (aliquot addition until dissolution); type: physicochemical
Description: Solubility in different solvents: Solubility in different organic solvents was measured using the following protocol. Approximately 25 mg portions of genistein and crystalline genistein sodium dihydrate salt were placed in 48 different vials, separately. 5 volume aliquots of each solvent were added exclusively to a vial. Between each addition, the mixture was checked for dissolution and if no dissolution was apparent, the procedure was continued until dissolution was observed or when 50 volumes had been added.

[8] = Gravimetric vapor sorption (GVS); type: physicochemical
Description: Gravimetric Vapor Sorption (GVS): Approximately 15 mg of sample was placed into a wire-mesh vapor sorption balance pan and loaded into an SMS intrinsic vapor sorption balance supplied (Surface Measurement Systems Instruments). The sample was then dried by maintaining a 0% humidity environment until no further weight change was recorded. Subsequently, the sample was then subjected to a ramping profile from 0-90% RH at 10% RH increments, maintaining the sample at each step until equilibration had been attained (99.5% step completion). Upon reaching equilibration, the % RH within the apparatus was ramped to the next step and the equilibration procedure repeated. After completion of the sorption cycle, the sample was then dried using the same procedure. The weight change during the sorption/desorption cycles were then monitored, allowing for the hygroscopic nature of the sample to be determined.
However, between 20 and 70 RH % (typical working range of material) only ca. 2% moisture change was observed.

[9] = intravenous, 1 mg/kg, mean ± SD, n = 3

O.O.O=c1c(-c2ccc(O)cc2)coc2cc(O)cc(O)c12.[Na] [genistein sodium salt dihydrate]
Solid form stability (XRPD, colour) ([1]; 40° C./75 RH % for 7 days): no change
Solid form stability (XRPD, colour) ([1]; 80° C. for 7 days): slight loss in crystallinity
Light stability ([1]; 7 day light stability tests): no change in color or solid form
Hydrate formation (XRPD, TGA) [2]: no further hydrates
Disproportionation (XRPD) [3]: No signs of disproportionation
pH of the supernatant after slurrying [3]: 7.1
C[Eq] (late kinetic solubility) ([4]; EtOH 100%): 11.20 mg×1^−1
C[MSS] (early kinetic solubility) ([4]; EtOH 100%): 10.85 mg×1^−1
ISI (Intrinsic Solubility Index) ([4]; EtOH 100%): 0.07
ISI / late solubility profile, rating in words ([4]; EtOH 100%): poor
KSR (Kinetic Solubility ratio) ([4]; EtOH 100%): 0.97
KSR, rating in words ([4]; EtOH 100%): excellent
MSS (Maximum Solubility Speed) ([4]; EtOH 100%): 36.90 mg×1^−1×min^−1
MSS, rating in words ([4]; EtOH 100%): excellent
ΔC [C, − CMSS] ([4]; EtOH 100%): 0.35 mg×1^−1
C[Eq] (late kinetic solubility) ([4]; EtOH/dH2O 50/50 (vol/vol)): 17.40 mg×1^−1
C[MSS] (early kinetic solubility) ([4]; EtOH/dH2O 50/50 (vol/vol)): 14.67 mg×1^−1
ISI (Intrinsic Solubility Index) ([4]; EtOH/dH2O 50/50 (vol/vol)): 0.60
ISI / late solubility profile, rating in words ([4]; EtOH/dH2O 50/50 (vol/vol)): good-to-acceptable
KSR (Kinetic Solubility ratio) ([4]; EtOH/dH2O 50/50 (vol/vol)): 0.84
KSR, rating in words ([4]; EtOH/dH2O 50/50 (vol/vol)): excellent
MSS (Maximum Solubility Speed) ([4]; EtOH/dH2O 50/50 (vol/vol)): 20.66 mg×1^−1×min^−1
MSS, rating in words ([4]; EtOH/dH2O 50/50 (vol/vol)): excellent
ΔC [CEq − CMSS] ([4]; EtOH/dH2O 50/50 (vol/vol)): 2.73 mg×1^−1
C[Eq] (late kinetic solubility) ([4]; EtOH/dH2O 75/25 (vol/vol)): 15.86 mg×1^−1
C[MSS] (early kinetic solubility) ([4]; EtOH/dH2O 75/25 (vol/vol)): 11.20 mg×1^−1
ISI (Intrinsic Solubility Index) ([4]; EtOH/dH2O 75/25 (vol/vol)): 1.26
ISI / late solubility profile, rating in words ([4]; EtOH/dH2O 75/25 (vol/vol)): excellent
KSR (Kinetic Solubility ratio) ([4]; EtOH/dH2O 75/25 (vol/vol)): 0.71
KSR, rating in words ([4]; EtOH/dH2O 75/25 (vol/vol)): excellent
MSS (Maximum Solubility Speed) ([4]; EtOH/dH2O 75/25 (vol/vol)): 37.33 mg×1^−1×min^−1
MSS, rating in words ([4]; EtOH/dH2O 75/25 (vol/vol)): excellent
ΔC [CEq − CMSS] ([4]; EtOH/dH2O 75/25 (vol/vol)): 4.66 mg×1^−1
solubility ([5]; Water/slurry pH 4.5, ambient temperature): 0.136 mg/mL
solubility ([5]; Water/slurry pH 6.7, ambient temperature): 0.707 mg/mL
solubility ([5]; Water/slurry pH 7.5, ambient temperature): 0.65 mg/mL
Time after ID dosing at which Cmax was observed ([6]; intraduodenal dosing, mean profile (FIG. 13)): ≤ 15 min
AUClast ([6]; intraduodenal, 20 mg/kg, mean ± SD, n = 3): 1161 ± 358 kg·ng·h/mL/mg
Pharmacokinetic profile following IV dosing, compared between the two forms ([6]; intravenous, 1 mg/kg): not significantly different
AUClast [6, 9]: 2129 ± 331 kg·ng·h/mL/mg
AUC∞ [6, 9]: 2189 ± 356 kg·ng·h/mL/mg
solubility ([7]; aqueous with cosolvent or surfactant or cyclodextrin, thermodynamic from solid, Acetone/Water (50:50)): 69.6 mg/mL
solubility ([7]; organic solvent or mixture, thermodynamic from solid, 1,4-dioxane): < 10.6 mg/mL
solubility ([7]; organic solvent or mixture, thermodynamic from solid, 1-Butanol (BuOH)): 19.3 mg/mL
solubility ([7]; organic solvent or mixture, thermodynamic from solid, 2-Propanol (IPA)): < 10.2 mg/mL
solubility ([7]; organic solvent or mixture, thermodynamic from solid, Acetone): < 10.2 mg/mL
solubility ([7]; organic solvent or mixture, thermodynamic from solid, Acetone/IPA (50:50)): 20.2 mg/mL
solubility ([7]; organic solvent or mixture, thermodynamic from solid, Acetonitrile (MeCN)): < 10.4 mg/mL
solubility ([7]; organic solvent or mixture, thermodynamic from solid, Cyclohexane): < 10.9 mg/mL
solubility ([7]; organic solvent or mixture, thermodynamic from solid, Dichloromethane (DCM)): < 10.8 mg/mL
solubility ([7]; organic solvent or mixture, thermodynamic from solid, Diisopropylether (DIPE)): < 9.7 mg/mL
solubility ([7]; organic solvent or mixture, thermodynamic from solid, Dimethyl sulfoxide (DMSO)): > 235 mg/mL
solubility ([7]; organic solvent or mixture, thermodynamic from solid, Ethanol (EtOH)): 98 mg/mL
solubility ([7]; organic solvent or mixture, thermodynamic from solid, Heptane): < 9.9 mg/mL
solubility ([7]; organic solvent or mixture, thermodynamic from solid, Methanol (MeOH)): < 8.8 mg/mL
solubility ([7]; organic solvent or mixture, thermodynamic from solid, Methyl acetate (MeOAc)): < 10.2 mg/mL
solubility ([7]; organic solvent or mixture, thermodynamic from solid, Methyl isobutyl ketone (MIBK)): < 9 mg/mL
solubility ([7]; organic solvent or mixture, thermodynamic from solid, Methylethyl ketone (MEK)): < 9.2 mg/mL
solubility ([7]; organic solvent or mixture, thermodynamic from solid, N-Methyl-2-pyrrolidinone (NMP)): 90.4 mg/mL
solubility ([7]; organic solvent or mixture, thermodynamic from solid, N-N-dimethylformamide (DMF)): > 218 mg/mL
solubility ([7]; organic solvent or mixture, thermodynamic from solid, Octanol): < 11 mg/mL
solubility ([7]; organic solvent or mixture, thermodynamic from solid, Tetrahydrofuran (THF)): < 10.4 mg/mL
solubility ([7]; organic solvent or mixture, thermodynamic from solid, Toluene): < 9.9 mg/mL
solubility ([7]; organic solvent or mixture, thermodynamic from solid, Toluene/Dioxane (50:50)): < 9.7 mg/mL
solubility ([7]; organic solvent or mixture, thermodynamic from solid, tert-Butylmethyl ether (TBME)): < 9.2 mg/mL
Maximum water adsorbed (GVS) ([8]; 0-90% RH cycle): 45 wt %
Moisture change (GVS) ([8]; between 20 and 70 RH %): ca. 2%
